We go through one compound from publication doi:10.64898/2026.03.17.711623, “Polypharmacology is an enduring and nearly universal property of kinase inhibitors” (bioRxiv, 2026).

The target of this test is T1, YES (Homo sapiens, UniProt P07947).
T1 construct: gene YES1
T1 sequence (P07947 whole entry): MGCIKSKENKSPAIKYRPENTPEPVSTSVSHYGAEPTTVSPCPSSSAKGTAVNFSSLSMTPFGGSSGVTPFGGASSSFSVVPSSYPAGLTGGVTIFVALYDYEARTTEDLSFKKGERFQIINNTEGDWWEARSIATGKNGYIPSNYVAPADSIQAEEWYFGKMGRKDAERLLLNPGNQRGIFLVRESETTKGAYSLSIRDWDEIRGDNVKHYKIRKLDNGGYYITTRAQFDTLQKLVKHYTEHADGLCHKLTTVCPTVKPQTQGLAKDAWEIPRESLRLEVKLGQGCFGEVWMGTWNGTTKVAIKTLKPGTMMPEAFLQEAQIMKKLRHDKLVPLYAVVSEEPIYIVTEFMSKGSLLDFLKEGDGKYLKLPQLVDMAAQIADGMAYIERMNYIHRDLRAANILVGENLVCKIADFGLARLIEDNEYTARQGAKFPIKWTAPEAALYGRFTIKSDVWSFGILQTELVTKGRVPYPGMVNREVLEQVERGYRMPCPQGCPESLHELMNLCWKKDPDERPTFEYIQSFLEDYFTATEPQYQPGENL

Regarding `Cc1cc(C(=O)Nc2cc(Oc3ccc4nc(NC(=O)C5CC5)cn4n3)ccc2C)n(C)n1` [HMSL12071, TAK-593], the Kd was 423 nM.

Broadly, the Kd is the free concentration of one partner at which half of the binding sites on the other are occupied at equilibrium, for simple one-to-one binding. A lower Kd goes with higher affinity.
